Measurements published in ChEMBL document CHEMBL1201862, “PubChem BioAssay data set” (2004).
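How tested: cells in 96-well plates exposed to compound for 48 hours at five concentrations. Abbreviation: GI50, concentration required for 50% inhibition of growth.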 Active and inactive are the calls of the source. No stated cut-off is given here; in the data, active = GI50 up to about 1.1 µM and inactive = higher.

Experiments:
Assay in all cases: DTP human tumour cell line panel, 48 h
A549 = test system: A549
CCRF-CEM = test system: CCRF-CEM
COLO 205 = test system: COLO 205
DU-145 = test system: DU-145
HCT-116 = test system: HCT-116
Hs-578T = test system: Hs-578T
IGROV-1 = test system: IGROV-1
MCF7 = test system: MCF7
NCI-H23 = test system: NCI-H23
OVCAR-5 = test system: OVCAR-5
PC-3 = test system: PC-3
RPMI-8226 = test system: RPMI-8226
SF-539 = test system: SF-539
SNB-19 = test system: SNB-19
SNB-75 = test system: SNB-75
T47D = test system: T47D
TK-10 = test system: TK-10
UACC-257 = test system: UACC-257
MDA-N = test system: MDA-N

Measured: GI50

O=C(O)c1cc(-c2ccc(-c3ccccc3)cc2)nc2cc3ccccc3cc12
inactive: A549 19.8 µM | CCRF-CEM 5.21 µM | COLO 205 54.7 µM | DU-145 66.8 µM | HCT-116 31.3 µM | Hs-578T 32.3 µM | IGROV-1 26.4 µM | MCF7 > 100 µM | NCI-H23 36.8 µM | OVCAR-5 > 100 µM | PC-3 17.5 µM | RPMI-8226 29.6 µM | SF-539 31.2 µM | SNB-19 35.6 µM | SNB-75 29.2 µM | T47D 49.5 µM | TK-10 58.2 µM | UACC-257 > 100 µM

Oc1cc(CF)nc(S)n1
inactive: A549 > 100 µM | CCRF-CEM > 100 µM | DU-145 > 100 µM | HCT-116 > 100 µM | Hs-578T > 100 µM | IGROV-1 > 100 µM | MDA-N > 100 µM | NCI-H23 > 100 µM | OVCAR-5 > 100 µM | PC-3 > 100 µM | SNB-19 > 100 µM | SNB-75 > 100 µM | T47D > 100 µM | TK-10 > 100 µM | UACC-257 > 100 µM

Cc1cc(C)nc(NS(=O)(=O)c2ccc(NNc3c4ccccc4nc4c(C(=O)Nc5ccc(S(=O)(=O)N=C(N)N)cc5)cccc34)cc2)n1
inactive: A549 > 100 µM | CCRF-CEM 34.6 µM | COLO 205 36.1 µM | DU-145 65.8 µM | HCT-116 48 µM | IGROV-1 53 µM | MCF7 76 µM | MDA-N 49.5 µM | NCI-H23 55.8 µM | OVCAR-5 25.1 µM | PC-3 31.6 µM | RPMI-8226 93.3 µM | SF-539 67 µM | SNB-19 61.1 µM | SNB-75 28.4 µM | T47D 25.8 µM | TK-10 > 100 µM | UACC-257 > 100 µM

Cc1[nH]c2cc([N+](=O)[O-])ccc2c1[N+](=O)[O-]
inactive: A549 17.1 µM | CCRF-CEM 16.8 µM | COLO 205 13.7 µM | IGROV-1 26.2 µM | NCI-H23 17.7 µM | OVCAR-5 27.2 µM | RPMI-8226 10.5 µM | SF-539 18.8 µM | SNB-19 18.7 µM | SNB-75 19 µM | TK-10 29.7 µM | UACC-257 17 µM

CSC1=C(C)C(/C=N/Nc2ccc([N+](=O)[O-])cc2)=C(C)N(c2ccccc2)S1(=O)=O
inactive: A549 36.3 µM | CCRF-CEM > 100 µM | COLO 205 48.2 µM | DU-145 > 100 µM | HCT-116 6.47 µM | IGROV-1 28.2 µM | MCF7 32.4 µM | MDA-N > 100 µM | NCI-H23 5.93 µM | OVCAR-5 > 100 µM | PC-3 25.9 µM | RPMI-8226 5.07 µM | SF-539 > 100 µM | SNB-19 > 100 µM | SNB-75 38.5 µM | T47D 3.09 µM | TK-10 > 100 µM | UACC-257 > 100 µM

COc1ccc(NC(=S)N/N=C/c2c(C)n(C)n(-c3ccccc3)c2=O)cc1
inactive: CCRF-CEM > 100 µM | COLO 205 > 100 µM | HCT-116 77.6 µM | Hs-578T 29.9 µM | IGROV-1 47.5 µM | MCF7 42.7 µM | NCI-H23 31.5 µM | PC-3 69.8 µM | RPMI-8226 > 100 µM | SF-539 21.3 µM | SNB-19 20.5 µM | SNB-75 28 µM | TK-10 53.3 µM | UACC-257 > 100 µM

COc1cc(C2SCC(=O)N2c2ccccn2)cc(OC)c1OC (centres undefined)
inactive: A549 > 100 µM | CCRF-CEM > 100 µM | COLO 205 > 100 µM | DU-145 > 100 µM | HCT-116 79.6 µM | Hs-578T > 100 µM | IGROV-1 81.1 µM | MCF7 49.2 µM | MDA-N 19 µM | NCI-H23 > 100 µM | OVCAR-5 > 100 µM | PC-3 > 100 µM | RPMI-8226 91 µM | SF-539 65 µM | SNB-19 > 100 µM | TK-10 > 100 µM | UACC-257 49.8 µM

COc1ccc(/C=C2\CCC(CNc3ccc(S(N)(=O)=O)cc3)C2=O)cc1 (centres undefined)
inactive: A549 > 82.8 µM | CCRF-CEM 2.29 µM | COLO 205 16.6 µM | DU-145 > 53.8 µM | HCT-116 8.65 µM | Hs-578T 43 µM | IGROV-1 20 µM | MCF7 1.74 µM | NCI-H23 19.7 µM | OVCAR-5 21.6 µM | PC-3 21.9 µM | SF-539 25.7 µM | SNB-19 32 µM | SNB-75 32.1 µM | T47D 17 µM | TK-10 14.3 µM | UACC-257 20 µM

CSc1nc2c(c(=O)n1C)N=C(c1ccc([N+](=O)[O-])cc1)CC(c1ccccc1)N2 (centres undefined)
inactive: A549 > 100 µM | CCRF-CEM 72.4 µM | COLO 205 > 100 µM | DU-145 > 100 µM | HCT-116 > 100 µM | IGROV-1 > 100 µM | MCF7 49 µM | NCI-H23 99.8 µM | OVCAR-5 > 100 µM | PC-3 > 100 µM | RPMI-8226 > 100 µM | SF-539 > 100 µM | SNB-19 > 100 µM | SNB-75 41.2 µM | UACC-257 > 100 µM
